The values below come from PubChem BioAssay AID1963860 (Molecular Pharmacology Branch, DTP, NCI, 2024).

The experiment deals with CN0375-F725-PDC KRAS spheroid viability. Kind of experiment: Anticancer human tumor CN0375-F725-PDC patient-derived colon carcinoma cell line growth inhibition [KRAS2]. The settings on record: spheroids with HUVEC and MSC; for viability, T/C: stronger effect = lower value. A digest of the protocol: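 Combination screen of spheroid viability in tumor-cell co-cultures with endothelial (HUVEC) and mesenchymal stem cell stroma. Each agent was tested in half-log dilutions, topping at clinical Cmax or at 10 microM without a known Cmax.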

[1] abbreviates: curve of first compound, second compound 0.1 µM.
Where [2] appears, read: curve of first compound, second compound 0.316 µM.
Setting [3] is: curve of first compound, second compound 1 µM.
Setting [4] is: curve of first compound, second compound 3.16 µM.
The mark [5] stands for this setting: second compound 0.1 µM, first compound 0.0316 µM.
Setting [6] is: second compound 0.1 µM, first compound 0.1 µM.
Setting [7] is: second compound 0.316 µM, first compound 0.0316 µM.
Where [8] appears, read: second compound 0.316 µM, first compound 0.1 µM.
The mark [9] stands for this setting: second compound 1 µM, first compound 0.0316 µM.
[10] abbreviates: second compound 1 µM, first compound 0.1 µM.
The mark [11] stands for this setting: second compound 3.16 µM, first compound 0.0316 µM.
Setting [12] is: second compound 3.16 µM, first compound 0.1 µM.

“And” between values parts separate entries of the source, which are not always exact repeats. Equal entries are not always repeated.
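Further: spheroids exposed to agents for 7 days.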

As usually defined, the IC50 is the concentration needed to halve the response being measured. The viability, T/C is the result in the treated group divided by that in the control group, in per cent. In the case of `Cn1ncnc1[C@H]1c2n[nH]c(=O)c3cc(F)cc(c23)N[C@@H]1c1ccc(F)cc1` + C=CC(=O)N1CCN(c2nc(OCC3CCCN3C)nc3c2CCN(c2cccc4cccc(C)c24)C3)CC1CC#N, the IC50 by setting is: (curve of first compound, second compound 0.0316 µM) over 0.1 µM; under setting [1], over 0.1 µM; under setting [2], over 0.1 µM; under setting [3], over 0.1 µM; under setting [4], under 0.000316 µM. Besides, the viability, T/C (second compound 0.0316 µM, first compound 0.000316 µM) was 99.6%; the viability, T/C (second compound 0.0316 µM, first compound 0.001 µM) is 105%; the viability, T/C (second compound 0.0316 µM, first compound 0.00316 µM) was 99.2%; the viability, T/C (second compound 0.0316 µM, first compound 0.01 µM) is 103%; the viability, T/C (second compound 0.0316 µM, first compound 0.0316 µM) is 97.6%; the viability, T/C (second compound 0.0316 µM, first compound 0.1 µM) was 99.6%. Besides, the viability, T/C reads like this: (second compound 0.1 µM, first compound 0.000316 µM) 106%; (second compound 0.1 µM, first compound 0.001 µM) 105%; (second compound 0.1 µM, first compound 0.00316 µM) 96.9%; (second compound 0.1 µM, first compound 0.01 µM) 94.3%; under setting [5], 100%; under setting [6], 91.8%. Also, the viability, T/C by setting is: (second compound 0.316 µM, first compound 0.000316 µM) 95.9%; (second compound 0.316 µM, first compound 0.001 µM) 107%; (second compound 0.316 µM, first compound 0.00316 µM) 100%; (second compound 0.316 µM, first compound 0.01 µM) 95.9%; under setting [7], 101%; under setting [8], 87%. The viability, T/C (second compound 1 µM, first compound 0.000316 µM) was 97.6%; the viability, T/C (second compound 1 µM, first compound 0.001 µM) was 99%; the viability, T/C (second compound 1 µM, first compound 0.00316 µM) was 93.7%; the viability, T/C (second compound 1 µM, first compound 0.01 µM) is 87.7%; the viability, T/C under setting [9] is 90.9%; the viability, T/C under setting [10] was 86.2%. Besides, the viability, T/C reads like this: (second compound 3.16 µM, first compound 0.000316 µM) 14.6%; (second compound 3.16 µM, first compound 0.001 µM) 13.1%; (second compound 3.16 µM, first compound 0.00316 µM) 20.2%; (second compound 3.16 µM, first compound 0.01 µM) 16.1%; under setting [11], 14.4%; under setting [12], 14.3%.

`COc1cc(OC)cc(N(CCNC(C)C)c2ccc3ncc(-c4cnn(C)c4)nc3c2)c1`: the viability, T/C (compound 0.0316 µM) was 94.3% [middle of 5 runs]; the viability, T/C (compound 0.1 µM) was 91.7% [middle of 5 runs]; the viability, T/C (compound 0.316 µM) was 92.1% [middle of 5 runs]; the viability, T/C (compound 1 µM) is 103% [middle of 5 runs]; the viability, T/C (compound 3.16 µM) was 82.9% [middle of 5 runs]; the viability, T/C (compound 10 µM) is 2.52% [middle of 5 runs]. Further, the IC50 (curve of compound) was 5.06 µM [middle of 4 runs].

Turning to `CC1(C)CCC(CN2CCN(c3ccc(C(=O)NS(=O)(=O)c4ccc(NCC5CCOCC5)c([N+](=O)[O-])c4)c(Oc4cnc5[nH]ccc5c4)c3)CC2)=C(c2ccc(Cl)cc2)C1`, the viability, T/C reads like this: (compound 0.0316 µM) 106% [middle of 5 runs]; (compound 0.1 µM) 102% [middle of 5 runs]; (compound 0.316 µM) 106% (3×) and 95.8% and 104%; (compound 1 µM) 104% [middle of 5 runs]; (compound 3.16 µM) 67.7% [middle of 5 runs].

In the case of `Cn1nccc1Nc1nccc(-c2cc3c(s2)C(C)(C)N(CCN2CCOCC2)C3=O)n1` + CC1OCC2(CCN(c3cnc(Sc4ccnc(N)c4Cl)c(N)n3)CC2)C1N, the IC50 under setting [1] was determined as 2.33 µM; the IC50 under setting [2] stood at 1.07 µM; the IC50 under setting [3] is 0.661 µM; the IC50 under setting [4] stood at 0.341 µM; the IC50 (curve of first compound, second compound 10 µM) amounted to 0.209 µM. Moreover, the viability, T/C runs as follows: under setting [5], 98.5%; under setting [6], 83.1%; (second compound 0.1 µM, first compound 0.316 µM) 69.8%; (second compound 0.1 µM, first compound 1 µM) 58.7%; (second compound 0.1 µM, first compound 3.16 µM) 47.5%; (second compound 0.1 µM, first compound 10 µM) 36.7%. Also, the viability, T/C under setting [7] was 88.8%; the viability, T/C under setting [8] was 78.1%; the viability, T/C (second compound 0.316 µM, first compound 0.316 µM) is 60.4%; the viability, T/C (second compound 0.316 µM, first compound 1 µM) is 51.8%; the viability, T/C (second compound 0.316 µM, first compound 3.16 µM) was 42.1%; the viability, T/C (second compound 0.316 µM, first compound 10 µM) was 36.3%. The viability, T/C is 81.2% under setting [9]; 81.9% under setting [10]; 60.1% (second compound 1 µM, first compound 0.316 µM); 45.3% (second compound 1 µM, first compound 1 µM); 37.1% (second compound 1 µM, first compound 3.16 µM); 35.9% (second compound 1 µM, first compound 10 µM). Besides, the viability, T/C under setting [11] is 74.7%; the viability, T/C under setting [12] is 65.5%; the viability, T/C (second compound 3.16 µM, first compound 0.316 µM) was 52.1%; the viability, T/C (second compound 3.16 µM, first compound 1 µM) is 36.4%; the viability, T/C (second compound 3.16 µM, first compound 3.16 µM) was 33.7%; the viability, T/C (second compound 3.16 µM, first compound 10 µM) was 31.5%. Moreover, the viability, T/C was 62.7% (second compound 10 µM, first compound 0.0316 µM); 63.3% (second compound 10 µM, first compound 0.1 µM); 42.8% (second compound 10 µM, first compound 0.316 µM); 31.9% (second compound 10 µM, first compound 1 µM); 28.9% (second compound 10 µM, first compound 3.16 µM); 28.3% (second compound 10 µM, first compound 10 µM).
